# Reference: PubChem BioAssay AID624076 (Broad Institute, 2012)
# Active and inactive are the calls of the source. No rule for the calls is given here.
# Experiment: PubChem AID 624076
# Conditions: Carna kinase panel, IMAP FP / mobility shift, at 10 µM, hits give high values
structure (smiles),measurement,setting,value
COc1ccccc1[C@@H]1C2=C(CC(C)(C)CC2=O)Nc2n[nH]c(C(F)(F)F)c21,inhibition,ABL(E255K),-4.01% (inactive)
same,inhibition,ABL(T315I),0.608% (inactive)
same,inhibition,AKT2,0.755% (inactive)
same,inhibition,AKT3,0.416% (inactive)
same,inhibition,ALK(L1196M),2.33% (inactive)
same,inhibition,ALK(R1275Q),2.67% (inactive)
same,inhibition,ARG,-1.1% (inactive)
same,inhibition,AXL,4.36% (inactive)
same,inhibition,AurB,6.59% (inactive)
same,inhibition,AurC,6.9% (inactive)
same,inhibition,"BRAF, cascade assay",10.8% (inactive)
same,inhibition,BRK,-0.572% (inactive)
same,inhibition,BRSK1,4.37% (inactive)
same,inhibition,BTK,-2.3% (inactive)
same,inhibition,CDK9/CycT1,20.5% (inactive)
same,inhibition,CHK2,6.76% (inactive)
same,inhibition,CK1e,0.145% (inactive)
same,inhibition,CK1g1,0.48% (inactive)
same,inhibition,CK1g2,2.84% (inactive)
same,inhibition,CK2a2/b,-4.08% (inactive)
same,inhibition,CK1d,-0.463% (inactive)
same,inhibition,CLK1,15.1% (inactive)
same,inhibition,CLK2,22.8% (inactive)
same,inhibition,CLK3,5.11% (inactive)
same,inhibition,CRIK,0.502% (inactive)
same,inhibition,CaMK2b,2.08% (inactive)
same,inhibition,CaMK4,2.19% (inactive)
same,inhibition,CaMK1d,0.058% (inactive)
same,inhibition,DAPK1,1.44% (inactive)
same,inhibition,DCAMKL2,3.11% (inactive)
same,inhibition,"DLK, cascade assay",-3.03% (inactive)
same,inhibition,DYRK1A,13.9% (inactive)
same,inhibition,DYRK1B,52.5%
same,inhibition,DYRK2,-4.58% (inactive)
same,inhibition,EGFR(L861Q),-0.865% (inactive)
same,inhibition,EML4-ALK,1.03% (inactive)
same,inhibition,EPHA3,-0.86% (inactive)
same,inhibition,EPHA5,-0.402% (inactive)
same,inhibition,EPHA8,-3.88% (inactive)
same,inhibition,EPHB1,3.24% (inactive)
same,inhibition,EPHB4,2.47% (inactive)
same,inhibition,FGFR1,4.17% (inactive)
same,inhibition,FGFR3(K650E),2.8% (inactive)
same,inhibition,FGFR3(K650M),1.1e-14% (inactive)
same,inhibition,FGFR4(N535K),0.356% (inactive)
same,inhibition,FGFR4(V550L),4.09% (inactive)
same,inhibition,FGFR4,5.54% (inactive)
same,inhibition,FLT4,9% (inactive)
same,inhibition,FMS,-0.377% (inactive)
same,inhibition,GSK3a,101%
same,inhibition,HER4,-0.972% (inactive)
same,inhibition,HIPK1,8.84% (inactive)
same,inhibition,HIPK3,3.54% (inactive)
same,inhibition,HIPK4,7.81% (inactive)
same,inhibition,Haspin,-1.27% (inactive)
same,inhibition,IGF1R,-2.57% (inactive)
same,inhibition,IKKb,-2.12% (inactive)
same,inhibition,IRAK4,-2.34% (inactive)
same,inhibition,IRR,-1.56% (inactive)
same,inhibition,JAK2,-0.539% (inactive)
same,inhibition,JAK3,8.04% (inactive)
same,inhibition,JNK1,-1.99% (inactive)
same,inhibition,JNK2,3.84% (inactive)
same,inhibition,JNK3,2.16% (inactive)
same,inhibition,KIT(T670I),8.36% (inactive)
same,inhibition,KIT(V560G),3.59% (inactive)
same,inhibition,KIT,6.69% (inactive)
same,inhibition,LATS2,3.09% (inactive)
same,inhibition,LOK,8.66% (inactive)
same,inhibition,LTK,11.1% (inactive)
same,inhibition,LYNa,15.1% (inactive)
same,inhibition,"MAP2K3, cascade assay",6.17% (inactive)
same,inhibition,"MAP2K4, cascade assay",0.115% (inactive)
same,inhibition,"MAP3K4, cascade assay",7.41% (inactive)
same,inhibition,"MAP3K5, cascade assay",14.4% (inactive)
same,inhibition,MAP4K2,7.36% (inactive)
same,inhibition,MARK2,39.1% (inactive)
same,inhibition,MARK4,48.6% (inactive)
same,inhibition,MELK,7.87% (inactive)
same,inhibition,MER,8.36% (inactive)
same,inhibition,MGC42105,0.183% (inactive)
same,inhibition,MINK,-2.54% (inactive)
same,inhibition,"MLK1, cascade assay",17.6% (inactive)
same,inhibition,"MLK2, cascade assay",4.73% (inactive)
same,inhibition,"MLK3, cascade assay",1.88% (inactive)
same,inhibition,MSK1,3.83% (inactive)
same,inhibition,MST2,-3.85% (inactive)
same,inhibition,MST4,-1.67% (inactive)
same,inhibition,NDR1,-0.193% (inactive)
same,inhibition,NEK1,0.375% (inactive)
same,inhibition,NEK2,0.761% (inactive)
same,inhibition,NEK6,3.82% (inactive)
same,inhibition,NEK7,-4.5% (inactive)
same,inhibition,PAK3,33.4% (inactive)
same,inhibition,PAK4,17.6% (inactive)
same,inhibition,PAK5,14.9% (inactive)
same,inhibition,PASK,3.87% (inactive)
same,inhibition,PBK,0.885% (inactive)
same,inhibition,PDGFRa(V561D),2.12% (inactive)
same,inhibition,PEK,-3.83% (inactive)
same,inhibition,PGK,0.119% (inactive)
same,inhibition,PHKG1,5.52% (inactive)
same,inhibition,PIK3CA/PIK3R1,-2.01% (inactive)
same,inhibition,PIM2,0.406% (inactive)
same,inhibition,PIM3,8.57% (inactive)
same,inhibition,PKACg,1.21% (inactive)
same,inhibition,PKCa,4.41% (inactive)
same,inhibition,PKCb2,9.38% (inactive)
same,inhibition,PKCd,8.65% (inactive)
same,inhibition,PKCg,5.54% (inactive)
same,inhibition,PKD1,-0.973% (inactive)
same,inhibition,PKD2,0.969% (inactive)
same,inhibition,PKD3,5.41% (inactive)
same,inhibition,PKN1,23.4% (inactive)
same,inhibition,PLK1,0.912% (inactive)
same,inhibition,PRKX,-1.49% (inactive)
same,inhibition,RET(S891A),16.1% (inactive)
same,inhibition,RET(Y791F),2.31% (inactive)
same,inhibition,ROCK1,6.72% (inactive)
same,inhibition,ROCK2,2.67% (inactive)
same,inhibition,ROS,82.7%
same,inhibition,RSK1,8.92% (inactive)
same,inhibition,RSK2,10.7% (inactive)
same,inhibition,RSK4,10.3% (inactive)
same,inhibition,SGK3,0.498% (inactive)
same,inhibition,SIK,3.03% (inactive)
same,inhibition,SLK,10.4% (inactive)
same,inhibition,SRC,4% (inactive)
same,inhibition,SRM,-2.09% (inactive)
same,inhibition,SRPK1,13.7% (inactive)
same,inhibition,SYK,-0.473% (inactive)
same,inhibition,"TAK1-TAB1, cascade assay",3.32% (inactive)
same,inhibition,TIE2,4.15% (inactive)
same,inhibition,TNK1,3.87% (inactive)
same,inhibition,TRKA,54.8%
same,inhibition,TSSK3,0% (inactive)
same,inhibition,TYK2,-1.6% (inactive)
same,inhibition,WNK2,-0.427% (inactive)
same,inhibition,p38a,1.28% (inactive)
same,inhibition,p38d,15.7% (inactive)
